Where two headings read alike, the source gives them in different places.
Target: T1, androgen receptor (AR) (Homo sapiens, UniProt P10275)
T1 sequence (P10275 1-920): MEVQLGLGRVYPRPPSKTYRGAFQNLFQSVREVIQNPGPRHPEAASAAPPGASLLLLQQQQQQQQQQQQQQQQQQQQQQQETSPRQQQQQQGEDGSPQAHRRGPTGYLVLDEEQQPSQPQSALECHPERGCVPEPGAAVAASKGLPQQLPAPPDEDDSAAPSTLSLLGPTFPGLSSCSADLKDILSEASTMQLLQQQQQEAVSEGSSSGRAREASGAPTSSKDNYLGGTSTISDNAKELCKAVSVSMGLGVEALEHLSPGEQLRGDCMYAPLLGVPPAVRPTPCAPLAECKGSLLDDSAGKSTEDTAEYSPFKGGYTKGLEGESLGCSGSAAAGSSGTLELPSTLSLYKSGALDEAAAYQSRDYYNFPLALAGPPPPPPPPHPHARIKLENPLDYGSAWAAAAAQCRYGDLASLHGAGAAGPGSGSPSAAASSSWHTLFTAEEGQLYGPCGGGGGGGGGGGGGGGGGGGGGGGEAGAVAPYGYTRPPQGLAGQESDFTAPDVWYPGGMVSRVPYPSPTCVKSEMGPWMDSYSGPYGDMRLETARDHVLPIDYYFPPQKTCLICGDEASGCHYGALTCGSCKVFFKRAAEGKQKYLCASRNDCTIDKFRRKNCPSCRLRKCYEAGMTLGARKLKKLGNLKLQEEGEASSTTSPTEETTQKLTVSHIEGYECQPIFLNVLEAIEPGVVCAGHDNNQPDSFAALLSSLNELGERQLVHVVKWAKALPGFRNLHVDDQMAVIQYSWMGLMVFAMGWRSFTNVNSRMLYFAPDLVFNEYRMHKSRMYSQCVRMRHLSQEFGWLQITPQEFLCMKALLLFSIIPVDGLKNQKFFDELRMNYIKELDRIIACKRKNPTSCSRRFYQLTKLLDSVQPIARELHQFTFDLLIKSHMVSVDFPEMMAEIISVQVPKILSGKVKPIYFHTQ
Assay: Degradation of androgen receptor (AR) protein in VCaP cells by ELISA
Type: cell-based
Details: for DC50: read-out: DC50; for Dmax: VCaP

[1] = AR degradation, VCaP cells, 16 h, ELISA, Table 3-1
[2] = AR degradation, VCaP cells, 16 h, ELISA, Table 3-2
[3] = AR degradation, VCaP cells, 16 h, ELISA, Table 3-2, read-out: Dmax (%)
[4] = AR degradation, VCaP cells, 16 h, ELISA, Table 3-1, read-out: Dmax (%)

| Structure (SMILES) | DC50 [1] [nM] | Dmax [4] [%] | further results |
| --- | --- | --- | --- |
| N#Cc1ccc(OC2CCC(NC(=O)c3cn(C4CCC(CN5CCC6(CC5)CN(c5ccc7c(c5)C(=O)N(C5CCC(=O)NC5=O)C7=O)C6)CC4)cn3)CC2)cc1Cl [Compound 113, N-((1r,4R)-4-(3-chloro-4-cyanophenoxy)cyclohexyl)-1-((1r,4R)-4-((2-(2-(2,6-dioxopiperidin-3-yl)-1,3-dioxoisoindolin-5-yl)-2,7-diazaspiro[3.5]nonan-7-yl)methyl)cyclohexyl)-1H-imidazole-4-formamide] | – | – | Dmax (%): ++++ (key: A: >80%; B: 79%-50%; C: 49%-25%; D: <25%); DC50: < 10 nM |
| N#Cc1ccc(O[C@H]2CC[C@H](NC(=O)c3cnc(N4CC5(CCN(C6CCN(c7cc8c(cc7F)C(=O)N(C7CCC(=O)NC7=O)C8=O)CC6)C5)C4)cn3)CC2)cc1Cl (some centres unmarked) [Compound 82, N-((1r,4r)-4-(3-chloro-4-cyanophenoxy)cyclohexyl)-5-(6-(1-(2-(2,6-dioxopiperidin-3-yl)-6-fluoro-1,3-dioxoisoindolin-5-yl)piperidine-4-yl)-2,6-diazaspiro [3.4]octane-2-yl)pyrazine-2-carboxamide] | < 10 | – | Dmax: > 80% |
| COc1cc(O[C@H]2C(C)(C)[C@H](N3Cc4nc(C#C[C@H]5C[C@H](N6CCN(c7ccc8c(c7)C(=O)N(C7CCC(=O)NC7=O)C8=O)CC6)C5)ccc4C3=O)C2(C)C)ccc1C#N (some centres unmarked) [Compound 392] | – | – | DC50 [2]: 10 to 100 nM; Dmax [3]: > 80% |
| CC1(C)[C@H](Oc2ccc(C#N)c(Cl)c2)C(C)(C)[C@H]1N1Cc2nc(C#C[C@H]3C[C@H](N4CCN(c5ccc6c(=O)n(C7CCC(=O)NC7=O)cnc6c5)CC4)C3)ccc2C1=O (some centres unmarked) [Compound 396] | – | – | DC50 [2]: 10 to 100 nM; Dmax [3]: > 80% |
| N#Cc1ccc(O[C@H]2CC[C@H](NC(=O)c3ccc(N4CCN(C5CC6(CCN(c7cc8c(cc7F)C(=O)N(C7CCC(=O)NC7=O)C8=O)CC6)C5)CC4)nn3)CC2)cc1Cl (some centres unmarked) [Compound 270, N-((1r,4r)-4-(3-chloro-4-cyanophenoxy)cyclohexyl)-6-(4-(7-(2-(2,6-dioxopiperidin-3-yl)-6-fluoro-13-dioxoisoindolin-5-yl) -7-azaspiro[3.5]nonan-2-yl)piperazin-1-yl)pyridazine-3-formamide] | < 10 | > 80 | – |
| N#Cc1ccc(O[C@H]2CC[C@H](NC(=O)c3ccc(N4CCC(CN5CCC6(CC5)CN(c5ccc7c(c5)C(=O)N(C5CCC(=O)NC5=O)C7=O)C6)CC4)cc3)CC2)cc1Cl (some centres unmarked) [Compound 192] | < 10 | > 80 | – |
| CC1(C)[C@H](Oc2ccc(C#N)c(Cl)c2)C(C)(C)[C@H]1N1Cc2nc(N3CCC(CN4CCN(c5cc6c(cc5F)C(=O)N(C5CCC(=O)NC5=O)C6)CC4)CC3)ccc2C1=O (some centres unmarked) [Compound 206] | – | – | inhibition at 0.1 µM (percentage of degraded AR at 100 nM, VCaP cells, 16 h, ELISA, read-out: % degradation): 25 to 49% |
| CC1(C)[C@H](Oc2ccc(C#N)c(Cl)c2)C(C)(C)[C@H]1N1Cc2nc(C#CC3CCC(N4CC5(CCN(c6ccc7c(c6)C(=O)N(C6CCC(=O)NC6=O)C7=O)C5)C4)CC3)ccc2C1=O (some centres unmarked) [Compound 368, 2-Chloro-4-((1r,3r)-3-(2-((4-(6-(2-(2,6-dioxopiperidin-3-yl)-1,3-dioxoisoindolin-5-yl)-2,6-diazaspiro[3.4]octane-2-yl)cyclohexyl)ethynyl)-5-oxo-5,7-dihydro-pyrrolo[3,4-b]pyridin-6-yl)-2,2,4,4-tetramethylcyclobutoxy) benzonitrile] | 100 to 300 | 40 to 60 | – |
| N#Cc1ccc(O[C@H]2CC[C@H](NC(=O)c3ccc(N4CCN(C[C@@H]5[C@H]6CN(c7cc8c(cc7F)C(=O)N(C7CCC(=O)NC7=O)C8=O)C[C@@H]56)CC4)nn3)CC2)cc1Br (stereo partly drawn) [Compound 126, N-((1r,4r)-4-(3-bromo-4-cyanophenoxy)cyclohexyl)-6-(4-(((1R,5S,6s)-3-(2-(2,6-dioxopiperidin-3-yl)-6-fluoro-1,3-dioxoisoindolin-5-yl)-3-azabicyclo[3.1.0]hexan-6-yl)methyl)piperazin-1-yl)pyridazine-3-amide] | < 10 | – | Dmax: > 80% |
| N#Cc1ccc(O[C@H]2CC[C@H](NC(=O)c3nnc(N4CC5(CCN(C6CCN(c7ccc8c(c7)C(=O)N(C7CCC(=O)NC7=O)C8=O)CC6)CC5)C4)s3)CC2)cc1Cl (some centres unmarked) [Compound 193, N-((1r,4r)-4-(3-chloro-4-cyanophenoxy)cyclohexyl)-5-(7-(1-(2-(2,6-dioxopiperidin-3-yl)-1,3-dioxoisoindolin-5-yl)piperidine-4-yl)-2,7-diazaspiro[3.5]nonan-2-yl)-1,3,4-thiadiazole-2-carboxamide] | < 10 | > 80 | – |
| CC1(C)[C@H](Oc2ccc(C#N)c(Cl)c2)C(C)(C)[C@H]1N1Cc2nc(C#CC3CCC(N4CC5(CCN(c6ccc7c(c6)C(=O)N(C6CCC(=O)NC6=O)C7=O)CC5)C4)CC3)ccc2C1=O (some centres unmarked) [Compound 376, 2-Chloro-4-((1r,3r)-3-(2-((4-(7-(2-(2,6-dioxopiperidin-3-yl)-1,3-dioxoisoindolin-5-yl)-2,7-diazaspiro[3.5]nonan-2-yl)cyclohexyl)ethynyl)-S-oxo-5,7-dihydro-pyrrolo[3,4-b]pyridin-6-yl)-2,2,4,4-tetramethylcyclobutoxy) benzonitrile] | > 300 | – | Dmax (%) [1]: ++ (60%-40%) |
| N#Cc1ccc(O[C@H]2CC[C@H](NC(=O)c3nnc(N4CC5(CCN(CC6CCN(c7cc8c(cc7F)C(=O)N(C7CCC(=O)NC7=O)C8=O)CC6)CC5)C4)s3)CC2)cc1Cl (some centres unmarked) [Compound 107, N-((1r,4r)-4-(3-chloro-4-cyanophenoxy)cyclohexyl)-5-(7-((1-(2-(2,6-dioxopiperidin-3-yl)-6-fluoro-1,3-dioxoisoindolin-5-yl)piperidine-4-yl)methyl)-2,7-diazaspiro[3.5]nonan-2-yl)-1,3,4-thiadiazole-2-carboxamide] | – | – | DC50 [2]: < 10 nM; Dmax [3]: > 80% |
| N#Cc1ccc(OC2CCC(NC(=O)c3ccc(N4CCC(CN5CCC6(CC5)CN(c5ccc7c(c5)CN(C5CCC(=O)NC5=O)C7=O)C6)CC4)nn3)CC2)cc1Cl (centres unmarked) [Compound 196, N-((1r,4r)-4-(3-chloro-4-cyanophenoxy)cyclohexyl)-6-(4-((2-(2-(2,6-dioxopiperidin-3-yl)-1-oxoisoindolin-5-yl)-2,7-diazaspiro[3.5]nonan-7-yl)methyl)piperidin-1-yl)pyridazine-3-formamide] | < 10 | – | Dmax (%) [1]: ++++ (>80%) |
| N#Cc1ccc(O[C@H]2CC[C@H](NC(=O)c3cnc(N4CCC(CN5CCC6(CC5)CN(c5ccc7c(c5)C(=O)N(C5CCC(=O)NC5=O)C7=O)C6)CC4)nc3)CC2)cc1Cl (some centres unmarked) [Compound 267] | < 10 | > 80 | – |
| N#Cc1ccc(O[C@H]2CC[C@H](NC(=O)c3ncnn3[C@H]3CC[C@H](CN4CCC5(CC4)CN(c4ccc6c(c4)C(=O)N(C4CCC(=O)NC4=O)C6=O)C5)CC3)CC2)cc1Cl (stereo partly drawn) [Compound 86, N-((1r,4R)-4-(3-chloro-4-cyanophenoxy)cyclohexyl)-1-((1r,4R)-4-((2-(2-(2,6-dioxopiperidin-3-yl)-1,3-dioxoisoindolin-5-yl)-2,7-diazaspiro[3.5]nonan-7-yl)methyl)cyclohexyl)-1H-1,2,4-triazole-5-formamide] | 100 to 300 | 60 to 80 | – |
| CC1(C)[C@H](Oc2ccc(C#N)c(Cl)c2)C(C)(C)[C@H]1N1Cc2nc(C#CC3CCC(N4CC5CC4CN5c4cc5c(cc4F)C(=O)N(C4CCC(=O)NC4=O)C5=O)CC3)cnc2C1=O (some centres unmarked) [Compound 386] | – | – | DC50 [2]: > 300 nM; Dmax [3]: 40 to 60% |
| N#Cc1ccc(O[C@H]2CC[C@H](NC(=O)c3ccc(N4CC5(CN(C[C@@H]6[C@H]7CN(c8cc9c(cc8F)C(=O)N(C8CCC(=O)NC8=O)C9=O)C[C@@H]67)C5)C4)nn3)CC2)cc1Cl (some centres unmarked) [Compound 92] | < 10 | > 80 | – |
| CC1(C)[C@H](Oc2ccc(C#N)c(Cl)c2)C(C)(C)[C@H]1N1Cc2nc(C#CC3CCC(N4CCC5(CCN(c6ccc7c(c6)C(=O)N(C6CCC(=O)NC6=O)C7=O)C5)C4)CC3)ccc2C1=O (some centres unmarked) [Compound 364, 2-Chloro-4-((1r,3r)-3-(2-((4-(7-(2-(2,6-dioxopiperidin-3-yl)-1,3-dioxoisoindolin-5-yl)-2,7-Diazaspiro[4.4]nonan-2-yl)cyclohexyl)ethynyl)-5-oxo-5,7-dihydro-6H-pyrrolo[3,4-b]pyridin-6-yl)-2,2,4,4-tetramethylcyclobutoxy) benzonitrile] | < 10 | > 80 | – |
